Reference: patent US20230145868A1, “UREA INHIBITORS OF MICRO-RNA” (Board of Regents, The University of Texas System, priority 2020, published 2023)

Key:
U251 cell line [1] = assay: Annexin V/PI apoptosis assay by flow cytometry, U251; type: cell-based, human; settings: 48 h
Description: (§1) In 6-well plates, 1×10^5 cells/mL were added into each well. After 24 h, sequential concentrations of DMSO and 4 based were administered and the plates were incubated for 48 h. The supernatant and adherent cells were collected and centrifugated. Each dose was done in triplicate, with each sample composing two wells. For apoptosis analysis, the supernatant was discarded after centrifugation and the pellet washed with PBS twice. Then, BD Annexin V-FITC/PI used to stain the cells for analysis via flow cytometry on the Gallios machine. For cell cycle analysis, after washing with PBS, cells were fixed with ethanol and incubated. They, were treated with RNase enzyme and analyzed.

AsPC1 cell line = assay: Migration assay, AsPC1; type: cell-based, human; settings: vs DMSO
Dicer = assay: Western blot, Dicer expression; type: cell-based, human; settings: AsPC1, AGS, U251, LN229
Description: (§2) Proteins are collected from cultured cells and lysed with 10× Lysis Buffer (Cell Signaling) freshly supplemented with a complete protease inhibitor cocktail and phosphatase inhibitors (Sigma). Bradford assay is used to measure protein concentration. Proteins are separated by polyacrylamide gel (Bio-rad) electrophoresis and were transferred to a 0.2 μm nitrocellulose membrane (Bio-rad). Quantification of protein expression was conducted using the image analysis software ImageJ.

PTEN = assay: Western blot, PTEN expression; type: cell-based, human
Description: as §2

Drosha = assay: Western blot, Drosha expression; type: cell-based, human; settings: AsPC1, AGS, U251, LN229
Description: as §2

U251 brain cancer line = assay: Clonogenic assay; type: cell-based, human; settings: dose-dependent, 1 μM up to 5 μM, two weeks
Description: In vitro clonogenic assays were conducted with adherent lines seeded in 12-well plates, treated for two weeks, and stained with crystal violet.

U251 cell line [2] = assay: MTS proliferation assay, U251; type: cell-based, human; settings: 5 and 10 μM, beginning at 48 h of treatment
Description: (§3) IC50 dose-response curves were determined using the cell proliferation assay system. Briefly, 5,000 or 10,000 cells of each cell line were plated in 96-well microculture plates in replicates of either 4 or 6. When cells became adherent, either 5 or 10 sequentially decreasing doses of the small molecule miRNA inhibitor were diluted into new media and added to individual wells. After either 24 or 48 hours, of a tetrazolium salt such as MTS, MTT, or WST-8 was added to each well at the same time of day as treatment and incubated for either 2 or 3 h at 37° C. The OD, measuring at the appropriate wavelength for the dye, was read at on a microplate spectrophotometer.
Cell proliferation is determined using a colorimetric assay. A tetrazolium salt such as MTS, MTT, or WST-8 is reduced by dehydrogenase activities in cells to give a formazan dye, which is soluble in the tissue culture media. The amount of the formazan dye (generated by the activities of dehydrogenases in cells, and directly proportional to the number of living cells) is measured after 3 h of incubation. The OD is read at 450 nm on a microplate spectrophotometer and growth values (%) are calculated as (OD treated cells/OD untreated cells)×100. The experiments are performed in triplicate. […] The OD is read at 450/550 nm on a microplate spectrophotometer, after one to seven days of the treatment. […]

[3] = tested on: proteins on the PI3K/AKT pathway; assay: Reverse phase protein array (RPPA), PI3K/AKT pathway; type: cell-based, human; settings: U251; 10 μM (FIG. 23); p<0.01
Description: Proteomics analysis was conducted at the Reverse Phase Protein Array Core facility at MD Anderson Cancer Center. Briefly, controls and treated samples were analyzed in triplicate for 486 unique antibodies. The outputs were then normalized for protein loading and transformed to the linear value, and the normalized data was logy transformed (log2(x+1)) and sorted by FDR-adjusted p-values with a significance level of p<0.05. Differentially expressed proteins between groups were identified using the moderated t-test from LIMMA package. […] Analyses and graphical representations were carried out in R. When preparing the data for analysis, the loge fold change was calculated and adjusted p-value was used for analysis. Gene symbols were converted using the DAVID bioinformatics resource and the clusterProfiler data visualization and analysis package was used for pathway enrichment analysis. For pathway analysis, the Hallmark gene set and Gene Ontology was used for gene set and pathway enrichment.

[4] = tested on: U251 brain cancer cell line; assay: Cell cycle analysis via flow cytometry; type: cell-based, human; settings: 5 μM
Description: as §1

[5] = tested on: human pre-miR-10b RNA hairpin; assay: NMR detection of compound binding to miRNA
Description: The human pre-miR-10b RNA hairpin sequence (nucleotides 40-75, per miRbase) was transcribed enzymatically and purified using methods previously described. The NMR screening buffer consisted of 20 mM Bis-Tris-d19 at pH 6.5, 10 mM NaCl, 0.2% Tween-20, and 11.1 μM DSA as chemical shift reference (integrates to 100 μM), prepared in 99.99% D2O or 95%H2O/5%D2O. Each ligand was first dissolved in DMSO to a 10 mM stock concentration. Free ligand screening samples were prepared at a final DMSO concentration of […] at a concentration of 100 μM in NMR screening buffer. For RNA target detected experiments, the lyophilized RNA pellets were dissolved in DMSO-free NMR screening buffer and heated for 4 min at 90° C., then snap cooled for 5 min at −20° C. ^1D-^1H experiments for both ligand and RNA were collected using the Bruker “zgesgp” excitation sculpting pulse sequence to suppress background water signal. Data was collected with 64 scans and 16K data points. Data was processed using 16K zero points, then Fourier transformed followed by manual phase and baseline correction. 2D-^1H TOCSY experiments were collected using the Bruker “mlevesgpph” pulse sequence with excitation sculpting water suppression, data collected with 32 scans, 2K×512 data points, a recycle delay of 1.2 s, and spin-lock mixing time of 80 ms. […]

[6] = tested on: U251, LN229, AGS, AsPC1 cell lines; assay: Cell viability IC50 dose-response curves; type: cell-based, human; settings: majority of cell lines (U251, LN229, AGS, AsPC1); values not given
Description: as §3

ligand detected 1D-1H line broadening (peak signal free vs bound) ([5]; ligand with pre-miR-10b sequence, methyl protons, indicative of direct binding): large decrease in peak signal
SMILES: Cc1ccc(F)c(NC(=O)Nc2ccc(-c3cccc4cn[nH]c34)cc2)c1 [Example 4, 1-(4-(1H-indazol-7-yl)phenyl)-3-(2-fluoro-5-methylphenyl)urea]
increase in total apoptotic cells compared to control (U251 cell line [1]; 5 μM): approximately 4.5 fold
total apoptotic cells at 10 μM compared with 5 μM (U251 cell line [1]; 10 μM): approximately the same
migration (AsPC1 cell line): decreased migration
Dicer expression (Western blot) (Dicer): little to no variation
PTEN expression (Western blot) (PTEN; LN229 brain cancer cell line): upregulation of PTEN
PTEN expression (Western blot) (PTEN; U251 brain cancer cell line): upregulation of PTEN
Drosha expression (Western blot) (Drosha): little to no variation
formation of colonies (U251 brain cancer line): suppressed the formation of colonies
proliferation (MTS), every 24 h over 96 h (U251 cell line [2]): significant difference in proliferation
expression of proteins on the PI3K/AKT pathway (RPPA) [3]: ten of the twelve proteins showing significant downregulation
cell cycle phase distribution [4]: clear increase shown at the G2/M phase
target detect 2D 1H-1H TOCSY, binding to pre-miR-10b ([5]; 50 μM pre-miR-10b titrated with 100 μM, largest shifts U6, U7, U8, U26, C27, C29, U33): directly binds to the hairpin structure of precursor miR-10b
IC50 at 48 h compared with IC50 at 24 h [6]: lower than the corresponding IC50 value at 24 h
